Source: the NIST ThermoML archive (doi:10.1016/j.jct.2012.11.032)

Assay: xn = mol fraction of the nth substance listed
Conditions: 101 kPa, Liquid; for speed of sound: Sing-around technique in a fixed-path interferometer; for mass density: Vibrating tube method

CCCCCCCC[n+]1ccn(C)c1.[Cl-] [1-methyl-3-octylimidazolium chloride] + O
Conditions	mass density [kg/m3]	speed of sound [m/s]
283 K, x1 = 0.000276	999.831	1451.5
283 K, x1 = 0.000495	999.918	1454.3
283 K, x1 = 0.000781	1000.05	1457
283 K, x1 = 0.00102	1000.16	1460.1
283 K, x1 = 0.0013	1000.3	1463.2
283 K, x1 = 0.001503	1000.38	1465.5
283 K, x1 = 0.001892	1000.56	1469.7
283 K, x1 = 0.002073	1000.64	1471.7
283 K, x1 = 0.002376	1000.78	1474.9
283 K, x1 = 0.00261	1000.89	1477.4
283 K, x1 = 0.002774	1000.96	1479
283 K, x1 = 0.003111	1001.11	1482.5
283 K, x1 = 0.003716	1001.38	1488.4
283 K, x1 = 0.003899	1001.46	1489.7
283 K, x1 = 0.004079	1001.55	1491.9
283 K, x1 = 0.004181	1001.59	1492.8
283 K, x1 = 0.004462	1001.71	1495.5
283 K, x1 = 0.004601	1001.77	1496.8
283 K, x1 = 0.004981	1001.93	1500.1
283 K, x1 = 0.005198	1002.02	1501.6
283 K, x1 = 0.005607	1002.2	1505.4
283 K, x1 = 0.005782	1002.27	1506.8
288 K, x1 = 0.000276	999.227	1469.6
288 K, x1 = 0.000495	999.302	1471.9
288 K, x1 = 0.000781	999.421	1474.6
288 K, x1 = 0.00102	999.519	1477.3
288 K, x1 = 0.0013	999.641	1480.2
288 K, x1 = 0.001503	999.712	1482.2
288 K, x1 = 0.001892	999.863	1486.1
288 K, x1 = 0.002073	999.938	1488
288 K, x1 = 0.002376	1000.06	1490.9
288 K, x1 = 0.00261	1000.15	1493.3
288 K, x1 = 0.002774	1000.21	1494.7
288 K, x1 = 0.003111	1000.35	1497.9
288 K, x1 = 0.003716	1000.58	1503.2
288 K, x1 = 0.003899	1000.64	1504.7
288 K, x1 = 0.004079	1000.72	1506.4
288 K, x1 = 0.004181	1000.75	1507.3
288 K, x1 = 0.004462	1000.85	1509.7
288 K, x1 = 0.004601	1000.9	1510.9
288 K, x1 = 0.004981	1001.04	1513.8
288 K, x1 = 0.005198	1001.12	1515.3
288 K, x1 = 0.005607	1001.27	1518.4
288 K, x1 = 0.005782	1001.32	1519.6
293 K, x1 = 0.000276	998.326	1485.5
293 K, x1 = 0.000495	998.392	1487.7
293 K, x1 = 0.000781	998.497	1490.3
293 K, x1 = 0.00102	998.584	1492.6
293 K, x1 = 0.0013	998.69	1495.3
293 K, x1 = 0.001503	998.751	1497.2
293 K, x1 = 0.001892	998.879	1500.8
293 K, x1 = 0.002073	998.946	1502.5
293 K, x1 = 0.002376	999.051	1505.2
293 K, x1 = 0.00261	999.124	1507.3
293 K, x1 = 0.002774	999.173	1508.7
293 K, x1 = 0.003111	999.291	1511.6
293 K, x1 = 0.003716	999.491	1516.5
293 K, x1 = 0.003899	999.54	1517.8
293 K, x1 = 0.004079	999.608	1519.3
293 K, x1 = 0.004181	999.636	1520.1
293 K, x1 = 0.004462	999.721	1522.3
293 K, x1 = 0.004601	999.764	1523.3
293 K, x1 = 0.004981	999.873	1525.9
293 K, x1 = 0.005198	999.935	1527.2
293 K, x1 = 0.005607	1000.06	1529.9
293 K, x1 = 0.005782	1000.1	1530.9
298 K, x1 = 0.000276	997.161	1499.5
298 K, x1 = 0.000495	997.221	1501.5
298 K, x1 = 0.000781	997.313	1503.9
298 K, x1 = 0.00102	997.386	1506.1
298 K, x1 = 0.0013	997.479	1508.5
298 K, x1 = 0.001503	997.527	1510.3
298 K, x1 = 0.001892	997.639	1513.6
298 K, x1 = 0.002073	997.696	1515.2
298 K, x1 = 0.002376	997.786	1517.6
298 K, x1 = 0.00261	997.846	1519.6
298 K, x1 = 0.002774	997.889	1520.8
298 K, x1 = 0.003111	997.987	1523.5
298 K, x1 = 0.003716	998.157	1527.9
298 K, x1 = 0.003899	998.198	1529.1
298 K, x1 = 0.004079	998.254	1530.5
298 K, x1 = 0.004181	998.28	1531.2
298 K, x1 = 0.004462	998.349	1533.1
298 K, x1 = 0.004601	998.382	1534
298 K, x1 = 0.004981	998.469	1536.3
298 K, x1 = 0.005198	998.52	1537.5
298 K, x1 = 0.005607	998.619	1539.8
298 K, x1 = 0.005782	998.649	1540.7
303 K, x1 = 0.000276	995.767	1511.7
303 K, x1 = 0.000495	995.808	1513.5
303 K, x1 = 0.000781	995.896	1515.8
303 K, x1 = 0.00102	995.954	1517.8
303 K, x1 = 0.0013	996.029	1520
303 K, x1 = 0.001503	996.067	1521.6
303 K, x1 = 0.001892	996.169	1524.7
303 K, x1 = 0.002073	996.211	1526.1
303 K, x1 = 0.002376	996.287	1528.3
303 K, x1 = 0.00261	996.341	1530.2
303 K, x1 = 0.002774	996.377	1531.2
303 K, x1 = 0.003111	996.455	1533.7
303 K, x1 = 0.003716	996.597	1537.7
303 K, x1 = 0.003899	996.633	1538.8
303 K, x1 = 0.004079	996.675	1540
303 K, x1 = 0.004181	996.696	1540.7
303 K, x1 = 0.004462	996.755	1542.4
303 K, x1 = 0.004601	996.78	1543.2
303 K, x1 = 0.004981	996.85	1545.2
303 K, x1 = 0.005198	996.89	1546.2
303 K, x1 = 0.005607	996.962	1548.2
303 K, x1 = 0.005782	996.986	1549
308 K, x1 = 0.000276	994.15	1522.2
308 K, x1 = 0.000495	994.182	1523.8
308 K, x1 = 0.000781	994.262	1526
308 K, x1 = 0.00102	994.297	1527.8
308 K, x1 = 0.0013	994.364	1529.8
308 K, x1 = 0.001503	994.399	1531.3
308 K, x1 = 0.001892	994.479	1534.1
308 K, x1 = 0.002073	994.514	1535.4
308 K, x1 = 0.002376	994.575	1537.4
308 K, x1 = 0.00261	994.623	1539.1
308 K, x1 = 0.002774	994.653	1540.1
308 K, x1 = 0.003111	994.711	1542.3
308 K, x1 = 0.003716	994.828	1545.9
308 K, x1 = 0.003899	994.859	1546.9
308 K, x1 = 0.004079	994.891	1548
308 K, x1 = 0.004181	994.908	1548.6
308 K, x1 = 0.004462	994.953	1550.1
308 K, x1 = 0.004601	994.974	1550.8
308 K, x1 = 0.004981	995.028	1552.6
308 K, x1 = 0.005198	995.061	1553.5
308 K, x1 = 0.005607	995.112	1555.3
308 K, x1 = 0.005782	995.128	1555.9
313 K, x1 = 0.000276	992.324	1531.1
313 K, x1 = 0.000495	992.347	1532.6
313 K, x1 = 0.000781	992.417	1534.6
313 K, x1 = 0.00102	992.447	1536.2
313 K, x1 = 0.0013	992.496	1538.1
313 K, x1 = 0.001503	992.524	1539.5
313 K, x1 = 0.001892	992.591	1542
313 K, x1 = 0.002073	992.619	1543.2
313 K, x1 = 0.002376	992.664	1545
313 K, x1 = 0.00261	992.706	1546.6
313 K, x1 = 0.002774	992.728	1547.5
313 K, x1 = 0.003111	992.774	1549.5
313 K, x1 = 0.003716	992.866	1552.7
313 K, x1 = 0.003899	992.89	1553.7
313 K, x1 = 0.004079	992.912	1554.6
313 K, x1 = 0.004181	992.929	1555.1
313 K, x1 = 0.004462	992.963	1556.5
313 K, x1 = 0.004601	992.978	1557.1
313 K, x1 = 0.004981	993.015	1558.7
313 K, x1 = 0.005198	993.04	1559.5
313 K, x1 = 0.005607	993.076	1561
313 K, x1 = 0.005782	993.084	1561.6
